# Tests used:
# [1] = molecular target: human DNA polymerase beta (Homo sapiens (Human), UniProt P06746); assay: Human DNA polymerase inhibition assay, pol beta; conditions: read-out: Human DNA pol β (IC50 uM)
# [2] = molecular target: human DNA polymerase alpha (Homo sapiens (Human), UniProt P09884); assay: Human DNA polymerase inhibition assay, pol alpha; conditions: read-out: Human DNA pol α (IC50 uM)
# [3] = molecular target: human DNA polymerase gamma (Homo sapiens (Human), UniProt P54098); assay: Human DNA polymerase inhibition assay, pol gamma
# HBV = HBV replication in HepG2.2.15 cells (viral DNA by qPCR); type: cell-based; conditions: Hepatitis B virus
# Procedure: HepG2.2.15 cells (100 μL) in RPMI1640 medium with 10% fetal bovine serum was added to all wells of a 96-well plate at a density of 1×10^4 cells per well and the plate was incubated at 37° C. in an environment of 5% CO2 for 24 hours. Following incubation, six ten-fold serial dilutions of test compound prepared in RPMI1640 medium with 10% fetal bovine serum were added to individual wells of the plate in triplicate. Six wells in the plate received medium alone as a virus only control. The plate was incubated for 6 days at 37° C. in an environment of 5% CO2. The culture medium was changed on day 3 with medium containing the indicated concentration of each compound. One hundred microliters of supernatant was collected from each well for analysis of viral DNA by qPCR and cytotoxicity was evaluated by XTT staining of the cell culture monolayer on the sixth day.
# Ten microliters of cell culture supernatant collected on the sixth day was diluted in qPCR dilution buffer (40 μg/mL sheared salmon sperm DNA) and boiled for 15 minutes. Quantitative real time PCR was performed in […] using an Applied Biosystems 7900HT Sequence Detection System and the supporting SDS 2.4 software. […]
# [4] = Cytotoxicity in HepG2 cells (XTT); type: cell-based; conditions: human, beside HBV
# Procedure: The 50% cytotoxic concentration for the test materials are derived by measuring the reduction of the tetrazolium dye XTT in the treated tissue culture plates. XTT is metabolized by the mitochondrial enzyme NADPH oxidase to a soluble formazan product in metabolically active cells. XTT solution was prepared daily as a stock of 1 mg/mL in PBS. Phenazine methosulfate (PMS) stock solution was prepared at 0.15 mg/mL in PBS and stored in the dark at −20° C. XTT/PMS solution was prepared immediately before use by adding 40 µL of PMS per 1 mL of XTT solution. Fifty microliters of XTT/PMS was added to each well of the plate and the plate incubated for 2-4 hours at 37° C. The 2-4 hour incubation has been empirically determined to be within linear response range for XTT dye reduction with the indicated numbers of cells for each assay. Adhesive plate sealers were used in place of the lids, the sealed plate was inverted several times to mix the soluble formazan product and the plate was read at 450 nm (650 nm reference wavelength) with a Molecular Devices SpectraMax Plus 384 spectrophotometer. Data were collected by Softmax 4.6 software and imported into an Excel spreadsheet for analysis.
# Adenovirus = assay: Inhibition of DNA virus replication, Adenovirus; type: cell-based; conditions: unidentified adenovirus
# [5] = Cytotoxicity in Huh-7 cells (DNA virus table); type: cell-based; conditions: human, Huh-7 cells; beside Adenovirus
# Huh-7 Cells = assay: Cytotoxicity in Huh-7 cells (DNA virus table); type: cell-based; conditions: beside HSV-1
# HSV-1 = assay: Inhibition of DNA virus replication, HSV-1; type: cell-based; conditions: Human alphaherpesvirus 1
# HIV = HIV infected PBMC assay; type: cell-based; conditions: Human immunodeficiency virus 1, PBMC
# Procedure: Fresh human peripheral blood mononuclear cells (PBMCs) were obtained from a commercial source (Biological Specialty) and were determined to be seronegative for HIV and HBV. Depending on the volume of donor blood received, the leukophoresed blood cells were washed several times with PBS. After washing, the leukophoresed blood was diluted 1:1 with Dulbecco's phosphate buffered saline (PBS) and layered over 15 mL of Ficoll-Hypaque density gradient in a 50 ml conical centrifuge tube. These tubes were centrifuged for 30 min at 600 g. Banded PBMCs were gently aspirated from the resulting interface and washed three times with PBS. After the final wash, cell number was determined by Trypan Blue dye exclusion and cells were re-suspended at 1×10^ 6 cells/mL in RPMI 1640 with 15% Fetal Bovine Serum (FBS), 2 mmol/L L-glutamine, 2 μg/mL PHA-P, 100 U/mL penicillin and 100 μg/mL streptomycin and allowed to incubate for 48-72 hours at 37° C. After incubation, PBMCs were centrifuged and resuspended in tissue culture medium. […]
# Following addition of test compound to the wells, 50 μL of a predetermined dilution of HIV virus (prepared from 4× of final desired in-well concentration) was added, and mixed well. […] After 7 days in culture, HIV-1 replication was quantified in the tissue culture supernatant by measurement of reverse transcriptase (RT) activity. […]
# [6] = Cytotoxicity in PBM cells; type: cell-based; conditions: human, PHA-P-stimulated peripheral blood mononuclear cells (PBMCs); beside HIV
# HCMV = assay: Inhibition of DNA virus replication, HCMV; type: cell-based; conditions: Human betaherpesvirus 5
# [7] = Cytotoxicity in MRC-5 cells (DNA virus table); type: cell-based; conditions: human, MRC-5 cells; beside HCMV
# MRC-5 Cells = assay: Cytotoxicity in MRC-5 cells (DNA virus table); type: cell-based; conditions: beside VZV
# VZV = assay: Inhibition of DNA virus replication, VZV; type: cell-based; conditions: Human alphaherpesvirus 3
# CV-B3 = conditions: read-out: EC50 against CV-B3; cited from earlier work
# EV68 = assay: CPE reduction assay, EV68; type: cell-based; conditions: EV68, strain US/KY/14-18953, RD cells
# COXV B3 = assay: CPE reduction assay, COXV B3; type: cell-based
# COXV A18 = assay: CPE reduction assay, COXV A18; type: cell-based; conditions: Huh-7; COXV A18, strain G13, Huh7 cells
# COXV A7 = assay: CPE reduction assay, COXV A7; type: cell-based; conditions: Huh-7; COXV A7, strain WP Parker, Huh7 cells
# COXV B1 = assay: CPE reduction assay, COXV B1; type: cell-based; conditions: Huh-7; COXV B1, strain Conn5, Huh7 cells
# COXV B2 = assay: CPE reduction assay, COXV B2; type: cell-based; conditions: COXV B2, strain Ohio 1, Huh7 cells
# COXV B4 = assay: CPE reduction assay, COXV B4; type: cell-based; conditions: Huh-7; COXV B4, strain JVB, Huh7 cells
# EV70 = assay: CPE reduction assay, EV70; type: cell-based; conditions: Huh-7; EV70, strain J670/71, Huh7 cells
# EV71 = assay: CPE reduction assay, EV71; type: cell-based; conditions: Enterovirus A
# HRV = assay: CPE reduction assay, HRV; type: cell-based; conditions: HeLa
# [8] = Cytotoxicity in RD cells (enterovirus assays); type: cell-based; conditions: human
# [9] = Cytotoxicity in MRC-5 cells (enterovirus assays); type: cell-based; conditions: human, line of EV71 H
# [10] = Cytotoxicity in HeLa cells (enterovirus assays); type: cell-based; conditions: human, line of HRV 26
# HeLa = assay: Cytotoxicity in HeLa cells (enterovirus assays); type: cell-based; conditions: line of HRV 1059
# in vitro = conditions: human
# Huh7 = assay: Cytotoxicity in Huh7 cells (enterovirus assays)
# Chain of human DNA polymerase alpha (P09884 whole entry): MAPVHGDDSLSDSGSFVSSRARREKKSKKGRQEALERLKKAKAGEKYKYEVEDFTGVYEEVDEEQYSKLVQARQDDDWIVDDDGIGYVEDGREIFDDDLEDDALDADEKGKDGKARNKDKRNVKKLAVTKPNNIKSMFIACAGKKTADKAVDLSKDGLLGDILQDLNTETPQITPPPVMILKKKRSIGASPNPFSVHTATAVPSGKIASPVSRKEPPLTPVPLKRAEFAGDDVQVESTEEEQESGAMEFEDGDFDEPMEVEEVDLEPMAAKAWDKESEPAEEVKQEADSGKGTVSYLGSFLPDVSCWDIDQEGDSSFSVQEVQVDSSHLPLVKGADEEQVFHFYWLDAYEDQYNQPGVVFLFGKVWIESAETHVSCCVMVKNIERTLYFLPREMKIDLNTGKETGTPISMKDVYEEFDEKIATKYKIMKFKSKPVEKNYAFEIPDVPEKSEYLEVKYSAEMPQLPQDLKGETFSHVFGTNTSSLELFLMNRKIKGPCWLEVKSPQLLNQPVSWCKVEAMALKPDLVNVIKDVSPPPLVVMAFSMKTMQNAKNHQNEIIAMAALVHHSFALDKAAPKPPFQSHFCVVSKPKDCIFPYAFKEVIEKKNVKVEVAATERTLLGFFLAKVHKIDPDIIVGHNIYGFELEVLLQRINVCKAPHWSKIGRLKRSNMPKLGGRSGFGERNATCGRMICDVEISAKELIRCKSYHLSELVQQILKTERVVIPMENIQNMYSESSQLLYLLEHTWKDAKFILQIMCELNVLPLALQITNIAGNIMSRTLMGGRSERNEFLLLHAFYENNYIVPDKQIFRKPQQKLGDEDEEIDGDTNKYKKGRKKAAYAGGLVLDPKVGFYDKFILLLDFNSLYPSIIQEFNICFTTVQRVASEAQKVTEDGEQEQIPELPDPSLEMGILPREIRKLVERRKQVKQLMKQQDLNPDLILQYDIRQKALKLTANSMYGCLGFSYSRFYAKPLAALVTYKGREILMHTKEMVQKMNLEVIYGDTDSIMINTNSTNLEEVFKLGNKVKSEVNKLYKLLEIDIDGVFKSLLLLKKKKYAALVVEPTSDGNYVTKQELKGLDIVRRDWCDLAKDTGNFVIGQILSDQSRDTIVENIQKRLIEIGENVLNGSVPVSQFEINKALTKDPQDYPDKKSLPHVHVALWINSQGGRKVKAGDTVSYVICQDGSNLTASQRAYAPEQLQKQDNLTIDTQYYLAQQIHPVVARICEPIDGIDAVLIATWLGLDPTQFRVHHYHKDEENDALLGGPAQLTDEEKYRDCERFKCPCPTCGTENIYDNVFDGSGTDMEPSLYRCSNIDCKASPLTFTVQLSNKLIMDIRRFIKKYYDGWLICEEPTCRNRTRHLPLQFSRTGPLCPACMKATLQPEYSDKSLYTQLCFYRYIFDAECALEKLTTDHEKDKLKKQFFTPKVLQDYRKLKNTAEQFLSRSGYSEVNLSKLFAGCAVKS
# Chain of human DNA polymerase gamma (P54098 whole entry): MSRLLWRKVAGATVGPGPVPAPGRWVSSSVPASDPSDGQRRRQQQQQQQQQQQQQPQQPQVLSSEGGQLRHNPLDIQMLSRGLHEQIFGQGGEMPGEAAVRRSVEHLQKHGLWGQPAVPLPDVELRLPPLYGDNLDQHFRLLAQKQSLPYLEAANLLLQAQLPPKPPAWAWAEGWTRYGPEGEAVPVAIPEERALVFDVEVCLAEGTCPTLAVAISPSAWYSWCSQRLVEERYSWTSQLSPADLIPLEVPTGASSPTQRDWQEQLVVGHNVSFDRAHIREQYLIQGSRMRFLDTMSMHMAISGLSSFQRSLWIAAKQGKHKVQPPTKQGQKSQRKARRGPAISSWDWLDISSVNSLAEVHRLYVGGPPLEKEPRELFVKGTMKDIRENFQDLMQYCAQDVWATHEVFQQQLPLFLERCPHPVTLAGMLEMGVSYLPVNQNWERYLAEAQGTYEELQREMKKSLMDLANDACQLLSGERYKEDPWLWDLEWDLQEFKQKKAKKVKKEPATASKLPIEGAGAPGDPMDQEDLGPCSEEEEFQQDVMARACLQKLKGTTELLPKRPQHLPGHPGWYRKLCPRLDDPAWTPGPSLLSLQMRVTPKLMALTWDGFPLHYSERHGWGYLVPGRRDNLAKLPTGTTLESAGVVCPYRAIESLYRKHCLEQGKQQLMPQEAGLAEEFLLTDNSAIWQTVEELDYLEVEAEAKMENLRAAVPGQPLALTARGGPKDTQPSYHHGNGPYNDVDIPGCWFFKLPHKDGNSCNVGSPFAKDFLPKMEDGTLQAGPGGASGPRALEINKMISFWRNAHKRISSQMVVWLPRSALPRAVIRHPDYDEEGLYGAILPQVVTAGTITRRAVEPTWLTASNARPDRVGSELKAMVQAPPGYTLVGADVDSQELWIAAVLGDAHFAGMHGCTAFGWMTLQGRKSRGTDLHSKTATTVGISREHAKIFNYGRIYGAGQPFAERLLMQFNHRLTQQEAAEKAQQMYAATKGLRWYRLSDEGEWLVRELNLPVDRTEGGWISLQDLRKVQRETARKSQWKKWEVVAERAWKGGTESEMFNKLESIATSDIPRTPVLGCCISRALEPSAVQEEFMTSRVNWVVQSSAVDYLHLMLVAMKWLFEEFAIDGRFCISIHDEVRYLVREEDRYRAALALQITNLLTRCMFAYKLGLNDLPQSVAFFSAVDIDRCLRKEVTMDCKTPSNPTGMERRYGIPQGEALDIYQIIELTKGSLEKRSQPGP
smiles,measurement,setting,value
CC1(O)[C@@H](O)[C@@H](COP(=O)(O)OP(=O)(O)OP(=O)(O)O)O[C@H]1n1ccc(=O)[nH]c1=S (stereo partly drawn),IC50,[1],588 µM
same,IC50,[2],> 1000 µM
same,IC50,[3],> 1000 µM
CC(C)OC(=O)[C@H](C)NP(=O)(OC[C@H]1O[C@@H](n2ccc(=O)[nH]c2=S)C(C)(O)[C@H]1O)Oc1ccccc1 (stereo partly drawn),IC50,HBV,> 100 µM
same,CC50,[4],> 100 µM
same,IC50,Adenovirus,> 100 µM
same,CC50,[5],> 100 µM
same,CC50,Huh-7 Cells,> 100 µM
same,EC50,HSV-1,> 100 µM
same,EC50,HIV,> 100 µM
same,CC50 at 7 days,[6],> 100 µM
same,EC50,HCMV,> 100 µM
same,CC50,[7],> 100 µM
same,CC50,MRC-5 Cells,> 100 µM
same,EC50,VZV,> 100 µM
CN(C)c1ccc(C(=O)O)cc1 [4-Dimethylamino benzoic acid],EC50,CV-B3,9 µM
CC(C)(C)C(=O)OCOP(=O)(OCOC(=O)C(C)(C)C)OC[C@H]1O[C@@H](n2ccc(=O)[nH]c2=S)[C@](C)(O)[C@@H]1O [EIDD-2523],EC50,EV68,0.38 µM
same,EC50,"COXV B3; Huh-7, COXV B3 (printed COXV 83 in the 3rd table), strain HA 201933, Huh7 cells",9.3 µM
same,EC50,"COXV B3; Huh-7, COXV B3, strain Nancy, Huh7 cells",0.38 µM
same,EC50,COXV A18,2.69 µM
same,EC50,COXV A7,3.37 µM
same,EC50,COXV B1,> 31 µM
same,EC50,COXV B2,2.65 µM
same,EC50,COXV B4,> 16 µM
same,EC50,EV70,0.07 µM
same,EC50,"EV71; MRC5, EV71, strain H, MRC-5 cells",1.71 µM
same,EC50,"EV71; EV71, strain Tainan/4643/98, RD cells",5.3 µM
same,EC50,"HRV; strain 26, HeLa cells",0.43 µM
same,EC50,"HRV; strain 1059, HeLa cells",0.72 µM
same,CC50,[8]; line of EV68 US/KY/14-18953,91 µM
same,CC50,[8]; line of EV71 Tainan/4643/98,50 µM
same,CC50,[9],32 µM
same,CC50,[10],> 100 µM
same,CC50,HeLa,> 100 µM
same,CC50,in vitro,31 µM
same,CC50,Huh7; line of COXV A7 WP Parker,30 µM
same,CC50,Huh7; line of COXV A18 G13,32 µM
same,CC50,Huh7; line of COXV B1 Conn5,31 µM
same,CC50,Huh7; line of COXV B2 Ohio 1,34 µM
same,CC50,Huh7; line of COXV B3 HA 201933,46 µM
same,CC50,Huh7; line of COXV B3 Nancy,32 µM
same,CC50,Huh7; line of COXV B4 JVB,16 µM
